Patent US9303006B2, “Line leaf inula flower lactone A and methods for preparing and using the same for treating myocarditis” (SHANXI ZHENDONG PILOT BIOLOGICAL SCIENCE AND TECHNOLOGY …, priority 2012, dated 2016)
“And” between values parts separate entries of the source, which are not always exact repeats. Equal values may be shown once. “Also recorded” adds a separate entry of the source.

How the values were obtained:
[1] = system: CVB3-Infected Mice; assay: Live body weight in CVB3-infected mice; type: in vivo, Balb/c male mice
Description: (§1) The thin Leaf inula flower lactone A compound from Example 1 was used; a viral strain: coxsackie B group virus B3 type Nancy strains (CVB3) was used at a virus infection dose of 10LD50 virus 0.2 ml through abdominal cavity infection in mice. The animals used were Balb/c male mice, 13 g to 15 g, from Shanghai West S&P-Bick Experimental Animals Co., Ltd. with animal number: qualified SCXX (Shanghai), 2008-0016. The positive control medicine was human recombinant interferon alpha 2 a, YinTeFen, Shenyang Junior Pharmaceutical co., Ltd., Product batch number 20090708.
(§2) Preparation and administration: the line leaf inula flower lactone A compound was weighed, ground, and suspended in 0.5% CMC (carboxymethyl cellulose) mixture at 10 mg/ml solution. Oral administration of the medicine was conducted for once per day, every time at 0.5 ml, for 7 days.
(§3) The experimental groups included (1) the viral infection group, each group had 10 mice, were given 0.5% CMC solution and virus.
(§4) Another group of 10 mice, with infection, was weighed after 7 days. Four mice were taken to detect cardiac function, and killed and dissected for collecting blood to test neutralizing antibody, heart weighing calculation index, and grinding the heart, with three resistance MEM fluid containing 10%. 1:10 dilution, on the cell model to detect coxsackie virus in mice drop degree (to observe the myocardial cell lesions) separation of virus infection.

[2] = system: coxsackie B group virus B3 type Nancy strains (CVB3); assay: CVB3-infected mice myocardial virus measured on cell model at 7th day (heart homogenate 1:10, cell lesions); type: in vivo, Balb/c male mice; settings: for 1:10 (cell lesions from myocardial homogenate) / Lesions rate % / Average disease rate % / Reduce lesions: 7th day; for 1:10 (cell lesions from myocardial homogenate) / Lesions rate %: individual mice NO 1-5, listed as leaves Inula flowers lactone A; for Average disease rate %: virus control 90%; for Reduce lesions: vs virus control
Description: as §1, §2, §3, §4

[3] = system: mouse EAM model; assay: Mouse experimental autoimmune myocarditis (EAM) model: HW/BW, cardiac morphology, HE pathology; type: in vivo, mice
Description: (§5) Pig myocardial myosin (PCM, 1 mg/ml; Sigma, St. Louis, Mo.) (Sigma), and equal volume of Freund's Complete Adjuvant (FCA, Sigma St. Louis, Mo.), were in an uniform emulsification and mixed into a homogeneous emulsion, where the mycobacterium tuberculosis H37Ra bead (Difco, Detroit, Mich.) with final concentration at 5 mg/ml. In the 0th day, the emulsion 0.2 ml (including antigen 200 μg) was taken and subcutaneously administered at the bilateral inguinal and multiple points under the armpit in mice. Seven days after the first immunization, the same procedure was performed to strengthen the immune once. The animals were divided into groups, each group had six mice.
(§6) Beginning on the day of immunity, the mice were given line leaf inula flower lactone A continuously for 21 days. Two dosing methods were applied:
(§7) (1) intraperitoneal injection: Line leaf inula flower lactone A of Example 1 was dissolved in phosphate buffer solution (PBS) (containing 5% DMSO (dimethyl sulfoxide)). The 4 concentration gradients were at 2.5 mg/kg/d^−1 (2.5 mg/kg every time, once a day); 5 mg/kg/d^−1; 10 mg/kg/d^−1; and 20 mg/kg/d^−1.
(2) Intragastric Administration: Line leaf inula flower lactone A suspended in 0.5% CMC-Na (carboxymethyl cellulose sodium). The 3 concentration gradients were at: 10 mg/kg/d^−1; 50 mg/kg/d^−1; and 100 mg/kg/d^−1.
(§8) Mice after 21 days were killed by taking off the neck, shearing heart, weighing and take photos, pathological section (HE hematoxylin-eosin staining), cytokine TNF-α change.
(1) heart and body weight ratio (HW/BW). Myocarditis in mice after the onset of the myocarditis should have the heart weight/body weight ratio larger than the model group, if the medication was effective, the ratio should be small and close to the normal group.
(2) Cardiac morphology. After the onset of the EAM in mice, the heart appeared swelling and pale as the result of the infiltration by inflammatory cells. Intraperitoneal injection of the line leaf inula flower lactone A (XX-3) were given at various dosages.
(4) pathology (conventional HE staining). Mice were killed by taking off the neck, heart was taken out, and residual blood was removed. Each heart was fixed in 10% formaldehyde, paraffin embedded, continuous sliced with conventional HE staining and observed under the microscope. The model group had visible focal myocardial cell degeneration necrosis, cytoplasm red dye, nuclear disappeared, with some muscle dissolved, interstitial broadening, and various inflammatory cell infiltration.

[4] = system: TNF-α; assay: Serum TNF-α in the mouse EAM model; type: in vivo, mice
Description: as §5, §6, §7, §8
(3) TNF-α change. TNF-α was an inflammation factor that played an important role in the onset of the EAM. […]

[5] = system: coxsackie B group virus B3 type Nancy strains (CVB3); assay: Serum neutralizing antibody in CVB3-infected mice; type: in vivo, Balb/c male mice; settings: oral treatment; concentration-response relationship by 7 days
Description: as §1, §2, §3
as §4, with “1:10 dilution, on the cell model to detect coxsackie virus in mice drop degree (to observe the myocardial cell lesions) separation of virus infection.” left out

[6] = system: coxsackie B group virus B3 type Nancy strains (CVB3); assay: Life protection (survival time) of mice infected by CVB3; type: in vivo, Balb/c male mice; settings: for Survival time M: CVB3-infected mice, observed 14 days; for prolonged survival time, extended percentage: vs virus control
Description: as §1, §2, §3
Test process was that after virus infection in mice (except the normal control group) for 2 hours, total drug delivery was performed 7 days in a row, observation was conducted until 14 days. The incidence and deaths were recorded every day, and the average survival days prolongation of life were calculated with p value calculation.

Compound: C=C1C(=O)O[C@H]2C[C@@H](C)[C@@H]3[C@@H](OC(C)=O)C[C@H](O)[C@@]3(C)[C@@H](OC(C)=O)[C@H]12 [line leaf inula flower lactone A]
- Live body weight M ± SD ([1]; 10 mg/Kg, 4 days): 15.23 ± 1.01
- Live body weight M ± SD ([1]; 10 mg/Kg, 8 days): 15.59 ± 0.89
- Live body weight M ± SD ([1]; 10 mg/Kg, 14 days): 17.92 ± 1.10
- Live body weight M ± SD ([1]; 10 mg/Kg, Before): 14.59 ± 0.71
- Live body weight M ± SD ([1]; 50 mg/Kg, 4 days): 15.14 ± 0.68
- Live body weight M ± SD ([1]; 50 mg/Kg, 8 days): 16.03 ± 0.96
- Live body weight M ± SD ([1]; 50 mg/Kg, 14 days): 18.33 ± 0.80
- Live body weight M ± SD ([1]; 50 mg/Kg, Before): 14.58 ± 0.49
- Live body weight M ± SD ([1]; 100 mg/Kg, 4 days): 15.13 ± 0.88
- Live body weight M ± SD ([1]; 100 mg/Kg, 8 days): 16.1 ± 1.05
- Live body weight M ± SD ([1]; 100 mg/Kg, 14 days): 18.21 ± 0.86
- Live body weight M ± SD ([1]; 100 mg/Kg, Before): 14.57 ± 0.55
- 1:10 (cell lesions from myocardial homogenate) ([2]; 10 mg/kg oral): + (: + 50%); also recorded: ++ (++ 100%)
- Lesions rate % ([2]; 10 mg/kg oral): 50% (4×) and 100%
- Average disease rate % ([2]; 10 mg/kg oral): 60%
- Reduce lesions ([2]; 10 mg/kg oral): 33.33%
- 1:10 (cell lesions from myocardial homogenate) ([2]; 50 mg/kg oral): ± (plus or minus: 0%); also recorded: + (: + 50%); also recorded: ++ (++ 100%)
- Lesions rate % ([2]; 50 mg/kg oral): 25% and 50% (3×) and 100%
- Average disease rate % ([2]; 50 mg/kg oral): 55%
- Reduce lesions ([2]; 50 mg/kg oral): 38.89%
- 1:10 (cell lesions from myocardial homogenate) ([2]; 100 mg/kg oral): ± (plus or minus: 0%); also recorded: + (: + 50%)
- Lesions rate % ([2]; 100 mg/kg oral): 25% (2×) and 50% (3×)
- Average disease rate % ([2]; 100 mg/kg oral): 40%
- Reduce lesions ([2]; 100 mg/kg oral): 55.56%
- effect on the coxsackie virus replication in the myocardial ([2]; CVB3-infected mice, oral treatment): inhibitory effect
- curative effect on EAM in mice ([3]; 100 mg/kg/d intragastric administration): has certain curative effect
- pathology (HE staining), efficacy ([3]; intragastric administration at 100 mg/kg·d^−1): worked the best
- Cardiac morphology, effect on the EAM model ([3]; intragastric administration, 21 days, FIG. 3): has curative effect on the EAM model
- Cardiac morphology, efficacy ([3]; intraperitoneal injection 20 mg/kg/d^−1, 21 days): worked the best efficacy
- heart and body weight ratio (HW/BW) ([3]; intraperitoneal injection 20 mg/kg/d^−1, 21 days, FIG. 1): changed HW/BW significantly
- pathology (HE staining), efficacy ([3]; intraperitoneal injection at 20 mg/kg·d^−1): worked the best
- occurrence of the EAM in mice ([3]; intraperitoneal injection of 20 mg/kg/d): prevents the occurrence of the EAM in mice
- most effective dose (cardiac morphology) ([3]; intraperitoneal injection, 21 days): 20 mg/kg/d^−1
- Cardiac morphology, degree and extent of the lesion vs model and solvent control groups ([3]; intraperitoneal injection, various dosages (2.5-20 mg/kg/d^−1), 21 days, FIG. 2): various degrees of improvement
- pathology (HE staining), myocardial inflammation ([3]; various dosages, vs model and solvent control groups, FIG. 5): had curative effect on myocardial inflammation in mice
- levels of serum TNF-α vs model group ([4]; intraperitoneal injection 20 mg/kg, 21 days, #P<0.05): the difference was significant
- levels of serum TNF-α vs model group ([4]; intraperitoneal injection, 21 days after first immunization, FIG. 4): decreased
- effect on neutralizing antibodies in the CVB3-infected mice [5]: improved the neutralizing antibodies
- Survival time M ([6]; 10 mg/kg oral once per day for 7 days): 8.9 days
- prolonged survival time, extended percentage ([6]; 10 mg/kg oral): 21.92%
- Survival time M ([6]; 50 mg/kg oral once per day for 7 days): 9 days
- prolonged survival time, extended percentage ([6]; 50 mg/kg oral): 23.29%
- Survival time M ([6]; 100 mg/kg oral once per day for 7 days): 9.4 days
- prolonged survival time, extended percentage ([6]; 100 mg/kg oral): 28.77%
- activity against coxsackie virus ([6]; summary statement, concentration-response correlation): has activity against coxsackie virus
